Details: in vivo

Structure (SMILES): CC(O)CC(=O)OCC(COC(=O)CC(C)O)OC(=O)CC(C)O (stereo not drawn) [GTβHB, Glyceryl Tris (Beta-HydroxyButyrate)]
- time for beta-hydroxybutyrate and acetoacetate from GTβHB to return to pre-administration levels: ≤ 24 h
- period within which GTβHB is cleared by the body (po): ≤ 24 h
